This is an account of results in patent publication US20110201564A1, “SUBSTITUTED 7-SULFANYLMETHYL, 7-SULFINYLMETHYL AND 7-SULFONYLMETHYL INDOLES AND USE THEREOF” (BAYER SCHERING PHARMA AKTIENGESELLSCHAFT, priority 2008, published 2011).

Structures are written as SMILES. Where two headings read alike, the source gives them in different places. Some results are limits rather than exact numbers.

Assay [1] concerns the target T1, CYP3A4 (Homo sapiens, UniProt P08684).
T1 construct: using human liver microsomes (pool from various individuals); from tissue; host or cells: human liver microsomes (pool from various individuals)
In words: CYP inhibition assay with human liver microsomes. The assay is classed as in vitro ADME. The text has this: Inhibitory properties of an active ingredient on the cytochromes P450 (CYP) of the human body may entail extensive clinical effects (drug interactions) because most of the prescribed medicaments are degraded (metabolized) by these enzymes. The ones involved in this are in particular the CYP isoenzymes of the 1A and 2C families, CYP2D6 and, with a proportion of almost 50%, CYP3A4. In order to preclude or minimize these possible drug interactions (Drug-Drug Interactions, DDI), the ability of substances to be able to inhibit CYP1A2, CYP2C8, CYP2C9, CYP2D6 and CYP3A4 in humans is investigated using human liver microsomes (pool from various individuals). This takes place by measuring CYP isoform-specific metabolites formed from standard substrates such as, for example, phenacetin, amodiaquin, diclofenac, dextromethorphan, midazolam and testosterone. The inhibitory effects are investigated at six different concentrations of the test compounds (1.5, 3.1, 6.3, 12.5, 25 and 50 μM as maximum concentration or 0.6, 1.3, 2.5, 5, 10 and 20 μM as maximum concentration), comparing with the extent of the CYP isoform-specific metabolite formation of the standard substrates in the absence of the test compounds, and calculating the corresponding IC50 values. CYP isoform-specific standard inhibitors such as, for example, fluvoxamine, quercetin, sulfaphenazole, fluoxetine and ketoconazole serve as control of the results obtained. In order to obtain indications of the possible mechanism-based inhibitors (MBI) on CYP3A4, the human liver microsomes are incubated in the presence of the inhibitor to be investigated for 30 minutes before the addition of midazolam or testosterone as standard substrates of CYP3A4. A reduction in the IC50 obtained by comparison with the mixture without preincubation serves as an indicator of a mechanism-based inhibition. Mibefradil serves as positive control.
The incubations of the standard substrates with human liver microsomes (23-233 μg/mL) in the presence of the test compound (as potential inhibitor) are carried out in 96-well plates in a workstation (Tecan, Genesis, Crailsheim, Germany) at 37° C. The incubation times are 15-20 minutes. The test compounds are preferably dissolved in acetonitrile (1.0 or 2.5 mM stock solution). The 96-well plates are produced by sequential addition of a stock solution of NADP+, EDTA, glucose 6-phosphate and glucose-6-phosphate dehydrogenase in phosphate buffer (pH 7.4), the test compound, and a solution of standard substrate and human liver microsomes in phosphate buffer (pH 7.4). The total volume is 200 μl. The corresponding control incubations with and without standard inhibitor also take place on the 96-well plate. The incubations are stopped after the respective incubation time by adding 100 μl of acetonitrile in which there is a suitable internal standard. Precipitated proteins are removed by centrifugation (3000 rpm, 10 minutes, 10° C.). The resulting supernatants of the respective plates are combined on one plate and analyzed by LC-MS/MS. The […] values are generated from the resulting measured data and used to assess the inhibitory potential of the test compound.
On the technique in general: Microsomes from liver hold many membrane-bound enzymes, among them those of drug oxidation.

For assay [2], the target named is T2, human mineralocorticoid receptor (MR) (Homo sapiens, UniProt P08235).
T2 construct: expressed in transfected cells; host or cells: CHO K1
T2 sequence (P08235 734-984 limits assumed): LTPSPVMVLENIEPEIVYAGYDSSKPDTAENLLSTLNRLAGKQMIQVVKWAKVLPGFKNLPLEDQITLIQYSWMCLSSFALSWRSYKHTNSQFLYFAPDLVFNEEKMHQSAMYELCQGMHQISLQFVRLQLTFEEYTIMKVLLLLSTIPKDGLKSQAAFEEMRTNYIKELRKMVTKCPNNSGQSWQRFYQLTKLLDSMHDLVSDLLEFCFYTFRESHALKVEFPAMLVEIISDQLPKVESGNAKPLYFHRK
Kind of assay: Cellular in vitro assay, GAL4-MR chimera luciferase reporter in CHO K1 cells (inhibitory MR activity). The assay is classed as cell-based. To be noted: antagonism vs aldosterone; CHO K1 GAL4-MR LBD luciferase reporter. The text has this:
(§1) 1. Cellular In Vitro Assay to Determine the Inhibitory MR Activity and MR Selectivity Compared with Other Steroid Hormone Receptors
(§2) Antagonists of the human mineralocorticoid receptor (MR) are identified, and the activity of the compounds described herein is quantified with the aid of a recombinant cell line. The cell is originally derived from a hamster ovary epithelial cell (Chinese Hamster Ovary, CHO K1, ATCC: American Type Culture Collection, VA 20108, USA).
(§3) An established chimera system in which the ligand-binding domains of human steroid hormone receptors are fused to the DNA-binding domain of the yeast transcription factor GAL4 is used in this CHO K1 cell line. The GAL4-steroid hormone receptor chimeras produced in this way are cotransfected and stably expressed with a reporter construct in the CHO cells.
(§4) To generate the GAL4-steroid hormone receptor chimeras, the GAL4 DNA-binding domain (amino acids 1-147) from the vector pFC2-dbd (from Stratagene) is cloned with the PCR-amplified ligand-binding domains of the mineralocorticoid receptor (MR, amino acids 734-985), of the progesterone receptor (PR, amino acids 680-933) and of the androgen receptor (AR, amino acids 667-919) into the vector pIRES2 (from Clontech). The reporter construct, which comprises five copies of the GAL4 binding site upstream of a thymidine kinase promoter, leads to expression of firefly luciferase (Photinus pyralis) after activation and binding of the GAL4-steroid hormone receptor chimeras by the respective specific agonists aldosterone (MR), dexamethasone (GR), progesterone (PR) and dihydrotestosterone (AR).
(§5) The MR, PR and AR cells are plated out in medium (Optimem, 2.5% FCS, 2 mM glutamine, 10 mM HEPES) in 96- (or 384- or 1536-)well microtiter plates on the day before the assay and are kept in a cell incubator (96% humidity, 5% v/v CO2, 37° C.). On the day of the assay, the substances to be tested are taken up in the abovementioned medium and added to the cells. About 10 to 30 minutes after addition of the test substances, the respective specific agonists of the steroid hormone receptors are added. After a further incubation time of 5 to 6 hours, the luciferase activity is measured with the aid of a video camera. The measured relative light units as a function of the substance concentration result in a sigmoidal stimulation curve. The IC50 values are calculated with the aid of the GraphPad PRISM computer program (Version 3.02).
(In general: A reporter such as luciferase makes a cellular process visible.)

The target in assay [3] is T3, progesterone receptor (PR) (Homo sapiens, UniProt P06401).
T3 construct: of the progesterone receptor (PR, amino acids 680-933); expressed in transfected cells; host or cells: CHO K1
T3 sequence (P06401 680-933): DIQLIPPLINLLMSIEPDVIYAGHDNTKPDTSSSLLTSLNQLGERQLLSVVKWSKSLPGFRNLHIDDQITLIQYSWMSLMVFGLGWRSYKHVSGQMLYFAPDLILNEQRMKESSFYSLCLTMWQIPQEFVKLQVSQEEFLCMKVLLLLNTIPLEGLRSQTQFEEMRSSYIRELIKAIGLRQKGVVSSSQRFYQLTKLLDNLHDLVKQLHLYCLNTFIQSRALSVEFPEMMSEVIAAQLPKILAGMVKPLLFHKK
Kind of assay: Cellular in vitro assay, GAL4-PR chimera luciferase reporter in CHO K1 cells (selectivity). The assay is classed as cell-based. Conditions: antagonism vs progesterone; CHO K1 GAL4-PR LBD luciferase reporter.
Text: as §1, §2, §3, §4, §5

In assay [4] the target is T4, androgen receptor (AR) (Homo sapiens, UniProt P10275).
T4 construct: of the androgen receptor (AR, amino acids 667-919); expressed in transfected cells; host or cells: CHO K1
T4 sequence (P10275 668-920): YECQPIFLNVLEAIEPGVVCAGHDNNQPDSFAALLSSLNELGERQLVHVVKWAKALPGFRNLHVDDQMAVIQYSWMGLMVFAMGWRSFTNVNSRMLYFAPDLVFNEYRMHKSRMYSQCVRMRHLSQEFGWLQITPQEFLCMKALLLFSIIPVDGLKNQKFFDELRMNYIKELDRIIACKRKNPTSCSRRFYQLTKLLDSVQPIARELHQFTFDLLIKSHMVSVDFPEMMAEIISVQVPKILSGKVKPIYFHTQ
Kind of assay: Cellular in vitro assay, GAL4-AR chimera luciferase reporter in CHO K1 cells (selectivity). The assay is classed as cell-based. To be noted: antagonism vs dihydrotestosterone; CHO K1 GAL4-AR LBD luciferase reporter.
Text: as §1, §2, §3, §4, §5

Setting [5] is: 30 min preincubation with test compound before substrate, read-out: CYP 3A4 Preincubation, 30 min.
Setting [6] is: without preincubation, read-out: CYP 3A4 Coincubation.

T1 sequence (P08684 whole entry): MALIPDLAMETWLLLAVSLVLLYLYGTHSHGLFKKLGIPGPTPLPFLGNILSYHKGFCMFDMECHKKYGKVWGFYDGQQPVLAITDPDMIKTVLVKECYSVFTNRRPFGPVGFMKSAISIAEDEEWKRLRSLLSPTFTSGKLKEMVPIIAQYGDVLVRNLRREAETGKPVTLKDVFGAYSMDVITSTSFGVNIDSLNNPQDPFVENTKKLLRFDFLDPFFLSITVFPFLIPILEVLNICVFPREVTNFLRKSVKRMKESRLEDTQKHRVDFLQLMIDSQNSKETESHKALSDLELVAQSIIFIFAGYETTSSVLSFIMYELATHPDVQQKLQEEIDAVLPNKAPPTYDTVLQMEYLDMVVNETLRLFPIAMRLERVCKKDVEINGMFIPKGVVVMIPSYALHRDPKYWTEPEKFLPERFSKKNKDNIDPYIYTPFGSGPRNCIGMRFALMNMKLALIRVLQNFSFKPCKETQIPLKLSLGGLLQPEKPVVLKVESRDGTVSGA

As for `CS(=O)(=O)Cc1cccc2c(C(c3ccc(C(F)(F)F)cc3)C3CC3)c[nH]c12` (stereo not shown) [Example 244, 3-{Cyclopropyl[4-(trifluoromethyl)phenyl]methyl}-7-[(methylsulfonyl)methyl]-1H-indole], the IC50 was > 20 µM in assay [1] (setting [5]), > 20 µM in assay [1] (setting [6]) and 0.17 µM in assay [2].

As to `CS(=O)(=O)Cc1cccc2c(C(c3c(F)cc(Cl)cc3F)C3CC3)c[nH]c12` (stereo not shown) [Example 252, 3-[(4-Chloro-2,6-difluorophenyl)(cyclopropyl)methyl]-7-[(methylsulfonyl)methyl]-1H-indole], the IC50 in assay [3] is 10 µM; in assay [1] (setting [5]) it was > 20 µM; in assay [1] (setting [6]) it was > 20 µM; in assay [4] it was 3.03 µM; in assay [2], 0.071 µM.

As for `CS(=O)(=O)Cc1cccc2c(C(c3ccc(C(F)(F)F)cc3Cl)C3CC3)c[nH]c12` (stereo not shown) [Example 245, 3-{[2-Chloro-4-(trifluoromethyl)phenyl](cyclopropyl)methyl}-7-[(methylsulfonyl)methyl]-1H-indole], the IC50 in assay [1] (setting [5]) was > 20 µM; in assay [1] (setting [6]) it was > 20 µM; in assay [4] it was 3.45 µM; in assay [2], 0.12 µM.

In the case of `CS(=O)(=O)Cc1cccc2c(C(c3ccc(Cl)cc3)C3CC3)c[nH]c12` (stereo not shown) [Example 249, 3-[(4-Chlorophenyl)(cyclopropyl)methyl]-7-[(methylsulfonyl)methyl]-1H-indole], the IC50 was 9.73 µM in assay [3]; 18.3 µM in assay [1] (setting [5]); > 20 µM in assay [1] (setting [6]); 3.45 µM in assay [4]; 0.069 µM in assay [2].

Take `C[S+]([O-])Cc1cccc2c(C3(C4CC4)CCc4cc(F)ccc43)c[nH]c12` (mixture of isomers) [Example 120, 3-(1-Cyclopropyl-5-fluoro-2,3-dihydro-1H-inden-1-yl)-7-[(methylsulfinyl)methyl]-1H-indole]: the IC50 is 5.51 µM in assay [3], 14.4 µM in assay [1] (setting [5]), > 20 µM in assay [1] (setting [6]) and 0.15 µM in assay [2].

In the case of `CC(CCC#N)(c1ccc(Cl)cc1)c1c[nH]c2c(CS(C)(=O)=O)cccc12` (stereo not shown) [Example 171, 4-(4-Chlorophenyl)-4-{7-[(methylsulfonyl)methyl]-1H-indol-3-yl}-pentanonitrile], the IC50 in assay [3] was 2.23 µM; in assay [1] (setting [5]), 7.8 µM; in assay [1] (setting [6]), > 20 µM; in assay [4] it was 3.2 µM; in assay [2], 0.03 µM.

With `CS(=O)(=O)Cc1cccc2c(C(c3ccc(Cl)cc3)C3CC3(F)F)c[nH]c12` (single isomer, unassigned) [Example 261-2, 3-[(4-Chlorophenyl)(2,2-difluorocyclopropyl)methyl]-7-[(methylsulfonyl)methyl]-1H-indole], the IC50 is 5.24 µM in assay [3]; 15 µM in assay [1] (setting [5]); > 20 µM in assay [1] (setting [6]); 6.06 µM in assay [4]; 0.028 µM in assay [2].

In the case of `CS(=O)(=O)Cc1cccc2c(C(c3ccc(Cl)cc3Cl)C3CC3)c[nH]c12` (stereo not shown) [Example 242, 3-[Cyclopropyl(2,4-dichlorophenyl)methyl]-7-[(methylsulfonyl)methyl]-1H-indole], the IC50 in assay [3] was 3.77 µM; in assay [1] (setting [5]) it was 15.8 µM; in assay [1] (setting [6]), > 20 µM; in assay [4], 1.39 µM; in assay [2] it was 0.066 µM.

With `CS(=O)(=O)Cc1cccc2c(C(c3ccc(Cl)cc3)C3CC3C#N)c[nH]c12` (stereo not shown) [Example 276, 2-[(4-Chlorophenyl){7-[(methylsulfonyl)methyl]-1H-indol-3-yl}methyl]cyclopropanecarbonitrile], the IC50 in assay [3] is 10 µM; in assay [1] (setting [5]) it was 18.2 µM; in assay [1] (setting [6]) it was > 20 µM; in assay [2], 0.024 µM.

Regarding `Cc1ccc(C(CCC#N)c2c[nH]c3c(CS(C)(=O)=O)cccc23)cc1` (stereo not shown) [Example 166, 4-(4-Methylphenyl)-4-{7-[(methylsulfonyl)methyl]-1H-indol-3-yl}butanonitrile], the IC50 in assay [3] was 10 µM; in assay [1] (setting [5]), 17.6 µM; in assay [1] (setting [6]) it was > 20 µM; in assay [2], 0.22 µM.

Turning to `CS(=O)(=O)Cc1cccc2c(C(c3ccc(F)cc3F)C3CC3)c[nH]c12` (stereo not shown) [Example 250, 3-[Cyclopropyl(2,4-difluorophenyl)methyl]-7-[(methylsulfonyl)methyl]-1H-indole], the IC50 in assay [3] was 10 µM; in assay [1] (setting [5]) it was 19.4 µM; in assay [1] (setting [6]) it was > 20 µM; in assay [4] it was 1.6 µM; in assay [2], 0.27 µM.
